Legend:
[1] = system: Isolated Rat Bladder Strips; assay: Inhibition of contractions in isolated rat bladder strips; assay type: cell-based
Description: Sprague-Dawley rats (150-200 g) are rendered unconscious by CO2 asphyxiation and then euthanized by cervical dislocation. […] The bladder is opened and then cut into strips 1-2 mm in width and 7-10 mm in length. The strips are subsequently suspended in a 10 mL tissue bath under an initial resting tension of 1.5 g. The strips are held in place by two surgical clips one of which is attached to a fixed hook while the other is attached to an isometric force transducer. […] The carbachol is then washed out and the tissue allowed to relax to its resting level of activity. Following a further 30 min period of recovery an additional 15 mM KCl are introduced into the tissue bath. […] Following stabilization of this enhanced level of contractile activity, incremental increases in the concentration of test compound or vehicle are introduced into the tissue bath. Contractile activity is measured for each compound or vehicle concentration during the last minute of a 30 minute challenge.

[2] = target: T1, calcium-dependent large conductance potassium channels (maxi K^+) (Rattus norvegicus, UniProt Q62976); assay: Potassium channel activation, whole cell patch clamp in isolated rat detrusor cells; assay type: cell-based
T1 construct: Rat detrusor cells were isolated in a manner previously described for guinea-pig detrusor; from tissue; host or cells: freshly isolated detrusor smooth muscle cells from urinary bladder dome of male Sprague-Dawley rats (endogenous channel)
T1 sequence (Q62976 whole entry): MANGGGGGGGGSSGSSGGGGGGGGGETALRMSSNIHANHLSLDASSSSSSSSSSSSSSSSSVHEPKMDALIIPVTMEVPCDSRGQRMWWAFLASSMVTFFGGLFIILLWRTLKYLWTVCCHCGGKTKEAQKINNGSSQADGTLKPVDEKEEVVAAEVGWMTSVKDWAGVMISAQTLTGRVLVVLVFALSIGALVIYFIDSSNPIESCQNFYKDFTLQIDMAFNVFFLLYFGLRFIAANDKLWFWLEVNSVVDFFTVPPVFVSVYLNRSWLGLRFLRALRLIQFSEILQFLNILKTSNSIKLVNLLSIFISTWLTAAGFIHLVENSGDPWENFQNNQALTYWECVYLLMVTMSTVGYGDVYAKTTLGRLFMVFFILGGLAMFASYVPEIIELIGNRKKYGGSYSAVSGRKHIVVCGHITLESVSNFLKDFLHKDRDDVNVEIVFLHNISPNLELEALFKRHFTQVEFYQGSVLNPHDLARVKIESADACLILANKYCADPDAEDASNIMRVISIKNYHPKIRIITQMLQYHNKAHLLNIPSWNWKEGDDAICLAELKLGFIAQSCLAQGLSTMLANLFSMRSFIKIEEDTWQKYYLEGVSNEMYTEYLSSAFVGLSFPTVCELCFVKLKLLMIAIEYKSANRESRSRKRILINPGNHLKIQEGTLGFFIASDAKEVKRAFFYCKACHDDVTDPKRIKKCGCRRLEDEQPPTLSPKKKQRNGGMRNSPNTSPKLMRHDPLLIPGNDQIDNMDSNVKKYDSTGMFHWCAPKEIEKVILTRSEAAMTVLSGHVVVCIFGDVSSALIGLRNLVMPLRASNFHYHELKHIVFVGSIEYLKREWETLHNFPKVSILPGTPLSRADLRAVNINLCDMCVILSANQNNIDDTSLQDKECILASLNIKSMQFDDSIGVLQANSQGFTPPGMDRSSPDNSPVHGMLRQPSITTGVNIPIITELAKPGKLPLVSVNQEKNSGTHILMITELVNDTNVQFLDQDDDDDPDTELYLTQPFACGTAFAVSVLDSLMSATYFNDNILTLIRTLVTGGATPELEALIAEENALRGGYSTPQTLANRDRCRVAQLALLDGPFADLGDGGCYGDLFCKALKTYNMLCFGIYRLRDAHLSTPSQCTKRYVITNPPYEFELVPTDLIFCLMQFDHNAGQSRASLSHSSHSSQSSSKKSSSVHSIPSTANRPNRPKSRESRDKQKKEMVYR
Description: Potassium channel activation by compounds of the present invention was established by examining the effect of the compound of Example 1 on calcium-dependent large conductance potassium channels (maxi K^+) as follows:
Rat detrusor cells were isolated in a manner previously described for guinea-pig detrusor (Sheldon and Argentieri, 1995). Male Sprage-Dawley rats (200-400 grams) were euthanized by CO2 inhalation and exsanguination. Their urinary bladders were rapidly removed and placed in 37° C. physiological solution with the following composition (mM): Na glutamate (80.0), NaCl (54.7), KCl (5.0), NaHCO3 (25.0), MgCl2.2H2 O (2.5), D-glucose (11.8) and CaCl2 (0.2) gassed with […], 95%/5% for a final pH of 7.4. The dome of the bladder was isolated from the trigon region and the mucosa was removed. This tissue was then cut into 2-3 mm wide strips and placed in fresh buffer for 1 hour. Tissues were then transferred into 10.0 ml of an isolation buffer containing the above composition plus collagenase type VIII (1.0 mg/ml) and pronase (0.25 mg/ml). After 10 minutes the isolation buffer was replaced with fresh isolation buffer for an additional 10 min. […]
Whole cell recordings were made using broken patch assess. […] After stability was achieved control currents were recorded. […] Currents were recorded for 5 to 10 minutes or until compound effects reached steady state. […]

[3] = system: swelling induced chloride channel current; assay: Chloride channel blockade, swelling induced chloride current in bladder cells; assay type: cell-based, guinea pig
Source text: Normal human bronchial epithelial cells (NHBE) were commercially available from Clonetics Corporation (San Diego, Calif.) and bladder cells were isolated from rat bladder.
The normal external solution contained (in mM): N-methyl d-Glucamine chloride (NMDGCl). 140, MgCl2 2, CaCl2 2 and 4-(2-hydroxyethyl)-1-piperazine ethanesulfonic acid (HEPES) 10. The normal pipette solution contained (in mM): NMDGCI. 125, HEPES 10, MgCl2 2, ethylenebis(oxonitrilo)tetraacetate (EGTA) 2, and ATPMg 5, the pH adjusted to 7.3 with TRIS. To identify the leak conductance from depolarization, internal Cl ion concentration was reduced to 40 mM using glutamic acid (ECl approximately -31 mV according Nernst equation). The osmolarity for standard external solution was about 280 mOsm. […]
The whole cell voltage clamp recording techniques were utilized to record membrane ionic currents. […] Membrane currents were recorded using an Axopatch 200A Patch Clamp Amplifier (Axon Instruments, Inc., Foster City, Calif.). […]
A: current traces from -100 to 60 mV were recorded in the isotonic, low osmolarity (210 mOsm) and after application of 20 μM Example 1 in same cell. […] Panel B is four superimposed ramp test traces recorded in the presence of control, hypotonic, Example 1 and washout solutions. The C panel depicts the time course of the effect of Example 1 on ICl,swelling at 60 mV monitored from the same cell.

With `C/C(=C\c1ccc(C(F)(F)F)cc1)C(=O)Nc1ccccc1C(=O)O` [1, Step 4] the “IC50 (A)/IC50 (B)” value ([1]; aorta/bladder IC50 ratio, selectivity) was 39.6.

For `C/C(=C\c1ccc(C(F)(F)F)cc1)C(=O)Nc1ccccc1C(=O)[O-].[Li+]` [Example 1, Step 4, (E)-2-[2-Methyl-3-(4-trifluoromethyl-phenyl)-acryloylamino]-benzoic acid lithium salt], the “effect on outward current (maxi K^+ current)” value ([2]; 10 μM in superfusate, isolated rat bladder cells) was “increase in outward current that was reversible upon washout”, the “effect on swelling induced chloride current” value ([3]; 20 μM, guinea pig bladder cell, low osmolarity 210 mOsm) was “significantly reduced swelling induced chloride current” and the inhibition at 20 µM ([3]; Cavia porcellus, Bladder, Swelling ICl, 60 mV, 210 mOsm) was 67%.

For `COc1ccc(/C=C/C(=O)Nc2ccccc2C(=O)O)cc1OC` [Tranilast, reference compound], the “smooth muscle relaxant potency and bladder selectivity” value ([1]; bladder/aorta IC50 ratios, Table 1) was “not to be a potent or bladder selective smooth muscle relaxant”.

In the case of `COc1ccc(Cl)cc1C(=O)NCCc1ccc(S(=O)(=O)NC(=O)NC2CCCCC2)cc1` [glyburide, reference compound], the “effect of glyburide on outward current” value ([2]; glyburide 5 μM added to the superfusate) is reported as “no effect”.
